Source: patent US10829458B2 (Araxes Pharma LLC, priority 2015, dated 2020)

Biological target: T1, KRAS G12C 1-169, his-tagged protein, GDP-loaded (Homo sapiens, UniProt P01116, G12C)
T1 construct: KRAS G12C 1-169, his-tagged protein, GDP-loaded
Test: Biochemical assay: covalent modification of KRAS G12C measured by mass spectrometry (RapidFire/TOF or Q-Exactive)
Conditions: covalent binding to KRAS G12C
Experimental: Test compounds were prepared as 10 mM stock solutions in DMSO (Fisher cat #BP-231-100). KRAS G12C 1-169, his-tagged protein, GDP-loaded was diluted to 2 μm in buffer (20 mM Hepes, 150 mM NaCl, 1 mM MgCl2). Compounds were tested for activity as follows:
Compounds were diluted to 50× final test concentration in DMSO in 96-well storage plates. Compound stock solutions were vortexed before use and observed carefully for any sign of precipitation. Dilutions were as follow: • For 100 μM final compound concentration, compounds were diluted to 5000 μM (5 μl 10 mM compound stock+5 μl DMSO and mixed well by pipetting. • For 30 μM final compound concentration, compounds were diluted to 1500 μM (3 μl 10 mM compound stock+17p DMSO) and mixed well by pipetting. • For 10 μM final compound concentration, compounds were diluted to 500 μM (2 μl 10 mM compound stock+38p DMSO) and mixed well by pipetting. 49p of the stock protein solution was added to each well of a 96-well PCR plate (Fisher cat #1423027). 1 μl of the diluted 50× compounds were added to appropriate wells in the PCR plate using 12-channel pipettor. Reactions were mixed carefully and thoroughly by pipetting up/down with a 200·1 multi-channel pipettor. The plate was sealed well with aluminum plate seal, and stored in drawer at room temperature for 30 min, 2 hour or 24 hrs. 5·1 of 2% formic acid (Fisher cat #A117) in DI H2O was then added to each well followed by mixing with a pipette. The plate was then resealed with aluminum seal and stored on dry ice until analyzed as described below.
The above described assays were analyzed by mass spectrometry according to one of the following two procedures:
The MS instrument is set to positive polarity, 2 GHz resolution, and low mass (1700) mode and allowed to equilibrate for 30 minutes. The instrument is then calibrated, switched to acquisition mode and the appropriate method loaded.
After another 30 minute equilibration time, a blank batch (i.e., buffer) is run to ensure equipment is operating properly. The samples are thawed at 37° C. for 10 minutes, briefly centrifuged, and transfer to the bench top. Wells A1 and H12 are spiked with 1 uL 500 uM internal standard peptide, and the plates centrifuged at 2000×g for 5 minutes. The method is then run and masses of each individual well recorded.
The masses (for which integration data is desired) for each well are pasted into the platemap and exported from the analysis. Masses for the internal standards are exported as well. The data at 50 ppm is extracted for the +19 charge state, and identity of well A1 is assigned using the internal standard spike and integrated. Peak data is exported as a TOF list and the above steps are repeated individually, for the +20, 21, 22, 23, 24, and 25 charge states.
The masses and peak intensities of KRAS G12C protein species were measured using a Dionex RSLCnano system (Thermo Scientific) connected to a Q Exactive Plus mass spectrometer (Thermo Scientific).
[…] of sample was each loaded onto a Aeris™ 3.6 μm WIDEPORE C4 200 Å, LC Column 50×2.1 mm column maintained at 40° C. at a flow rate of 600 μl min^−1 with […] (0.1% formic acid in acetonitrile). The liquid chromatography conditions were 20% solvent B for 1 min, 20% to 60% solvent B for 1.5 min, 60% to 90% solvent for 0.5 min, 90% solvent B for 0.2 min, 90% to 20% solvent B for 0.2 min, and then equilibrated for 1.6 min before the following sample injection. The flow rate was maintained at 600 μl min^−1 throughout the sample analysis.
The mass spectrometer was operated in profile mode at a resolution of 17500, 5 microscans, using 50 msec max injection time and an AGC target of 1e6, and a full mass range from 800-1850 m/z was recorded. The HCD trapping gas was optimized for maximum sensitivity for intact proteins. […]

Row | SMILES | Binding % (compounds of structure (I)) | also measured
1 | C=CC(=O)N1CCN(c2nc(N3CC(N4CCOCC4)C3)nc3c(F)c(-c4c(O)cccc4F)c(Cl)cc23)CC1 [Example I-24, 1-(4-(6-chloro-8-fluoro-7-(2-fluoro-6-hydroxyphenyl)-2-(3-morpholino-azetidin-1-yl)quinazolin-4-yl)piperazin-1-yl)prop-2-en-1-one] | +++ (+++ indicates binding activity greater than 90%) | 
2 | C=CC(=O)N1CCN(c2nc(NCCc3ncccn3)nc3c(F)c(-c4c(C)ccc5[nH]ncc45)c(Cl)cc23)CC1 [Example I-169, 1-(4-(6-chloro-8-fluoro-7-(5-methyl-1H-indazol-4-yl)-2-((2-(pyrimidin-2-yl)ethyl)amino)quinazolin-4-yl)piperazin-1-yl) prop-2-en-1-one] | ++ (++ indicates binding activity from 50 to 90%) | 
3 | C=CC(=O)N1CCN(c2nc(OCCN(C)C)nc3c(F)c(-c4cc(O)cc5ccccc45)c(Cl)cc23)CC1 (atropisomer, axis not shown) [Example I-96, (R)-1-(4-(6-chloro-2-(2-(dimethylamino)ethoxy)-8-fluoro-7-(3-hydroxy-naphthalen-1-yl)quinazolin-4-yl)piperazin-1-yl)prop-2-en-1-one] | + (+ indicates binding activity up to 50%) | 
4 | C=CC(=O)N1CCN(c2ncnc3c(F)c(-c4c(O)cccc4F)c(Cl)cc23)C(=O)C1 [III-38, 4-acryloyl-1-(6-chloro-8-fluoro-7-(2-fluoro-6-hydroxy-phenyl)quinazolin-4-yl) piperazin-2-one] |  | Binding % (compounds of structure (III)): ++ (++ indicates activity from 50% to 90%)
5 | O=C(/C=C/CN1CCOCC1)N1CCN(c2ncnc3c(F)c(-c4c(O)cccc4F)c(Cl)cc23)CC1 [II-1, (E)-1-(4-(6-chloro-8-fluoro-7-(2-fluoro-6-hydroxyphenyl)quinazolin-4-yl)piperazin-1-yl)-4-morpholinobut-2-en-1-one] |  | Binding % (compounds of structure (II)): + (+ indicates binding activity up to 50%)
6 | C=CC(=O)N1CCN(c2nc(OCCn3ccnc3)nc3c(F)c(-c4c(C)ccc5[nH]ncc45)c(Cl)cc23)CC1 [Example I-7, 1-(4-(2-(2-(1H-imidazol-1-yl)ethoxy)-6-chloro-8-fluoro-7-(5-methyl-1H-indazol-4-yl)quinazolin-4-yl)piperazin-1-yl)prop-2-en-1-one] | ++ (++ indicates binding activity from 50 to 90%) | 
7 | C=CC(=O)N1CCN(c2nc(NC3CCN(C4CC4)CC3)nc3c(F)c(-c4c(C)ccc5[nH]ncc45)c(Cl)cc23)CC1 [Example I-20, 1-(4-(6-chloro-2-(1-cyclopropyl-piperidin-4-ylamino)-8-fluoro-7-(5-methyl-1H-indazol-4-yl)quinazolin-4-yl)piperazin-1-yl)prop-2-en-1-one] | +++ (+++ indicates binding activity greater than 90%) | 
8 | C=CC(=O)N1CCN(c2nc(NCCP(C)(C)=O)nc3c(F)c(-c4c(O)cccc4F)c(Cl)cc23)CC1 [Example I-208, 1-(4-(6-chloro-2-(2-(dimethyl-phosphoryl)ethylamino)-8-fluoro-7-(2-fluoro-6-hydroxyphenyl)quinazolin-4-yl)piperazin-1-yl) prop-2-en-1-one] | ++ (++ indicates binding activity from 50 to 90%) | 
9 | C=CC(=O)N1CCN(c2nc(OCc3ccnnc3)nc3c(F)c(-c4c(O)cccc4F)c(Cl)cc23)CC1 [Example I-127, 1-(4-(6-chloro-8-fluoro-7-(2-fluoro-6-hydroxyphenyl)-2-(pyridazin-4-ylmethoxy)quinazolin-4-yl)piperazin-1-yl) prop-2-en-1-one] | +++ (+++ indicates binding activity greater than 90%) | 
10 | C=CC(=O)N1CCN(c2nc(OCCc3ccc(F)cn3)nc3c(F)c(-c4c(O)cccc4F)c(Cl)cc23)CC1 [Example I-100, 1-(4-(6-chloro-8-fluoro-7-(2-fluoro-6-hydroxyphenyl)-2-(2-(5-fluoro-pyridin-2-yl)ethoxy)quinazolin-4-yl)piperazin-1-yl) prop-2-en-1-one] | +++ (+++ indicates binding activity greater than 90%) | 
11 | C=CC(=O)N1CCN(c2nc(NC3CCN(c4ncccn4)CC3)nc3c(F)c(-c4c(O)cccc4F)c(Cl)cc23)CC1 [Example I-190, 1-(4-(6-chloro-8-fluoro-7-(2-fluoro-6-hydroxyphenyl)-2-((1-(pyrimidin-2-yl)piperidin-4-yl)amino)quinazolin-4-yl)piperazin-1-yl) prop-2-en-1-one] | + (+ indicates binding activity up to 50%) | 
12 | C=CC(=O)N1CCN(c2nc(NC3CCN(C(C)C)CC3)nc3c(F)c(-c4c(O)cccc4F)c(Cl)cc23)CC1 [Example I-84, 1-(4-(6-chloro-8-fluoro-7-(2-fluoro-6-hydroxyphenyl)-2-(1-isopropyl-piperidin-4-ylamino)quinazolin-4-yl)piperazin-1-yl)prop-2-en-1-one] | +++ (+++ indicates binding activity greater than 90%) | 
13 | C=CC(=O)N1C[C@H](C)N(c2ncnc3c(F)c(-c4c(O)cccc4F)c(Cl)cc23)C[C@H]1C [III-1, 1-((2R,5S)-4-(6-chloro-8-fluoro-7-(2-fluoro-6-hydroxy-phenyl)quinazolin-4-yl)-2,5-dimethyl-piperazin-1-yl)prop-2-en-1-one] |  | Binding % (compounds of structure (III)): ++ (++ indicates activity from 50% to 90%)
14 | C=CC(=O)N1CCN(c2nc(N3CC(N(C)C)C3)nc3c(F)c(-c4c(O)cccc4F)c(Cl)cc23)CC1 (atropisomer, axis not shown) [Example I-117, (R)-1-(4-(6-chloro-2-(3-(dimethylamino)azetidin-1-yl)-8-fluoro-7-(2-fluoro-6-hydroxyphenyl)quinazolin-4-yl)piperazin-1-yl) prop-2-en-1-one] | + (+ indicates binding activity up to 50%) | 
15 | C=CC(=O)N1CCN(c2nc(OCCS(C)(=O)=O)nc3c(F)c(-c4c(O)cccc4F)c(Cl)cc23)CC1 [Example I-113, 1-(4-(6-chloro-8-fluoro-7-(2-fluoro-6-hydroxyphenyl)-2-(2-(methyl-sulfonyl)ethoxy)quinazolin-4-yl)piperazin-1-yl) prop-2-en-1-one] | +++ (+++ indicates binding activity greater than 90%) | 
16 | C=CC(=O)N1CCN(c2nc(OCc3ncco3)nc3c(F)c(-c4c(O)cccc4F)c(Cl)cc23)CC1 [Example I-109, 1-(4-(6-chloro-8-fluoro-7-(2-fluoro-6-hydroxyphenyl)-2-(oxazol-2-ylmethoxy)quinazolin-4-yl)piperazin-1-yl) prop-2-en-1-one] | +++ (+++ indicates binding activity greater than 90%) | 
17 | C=CC(=O)N1CCN(c2nc(NC3CCOCC3)nc3c(F)c(-c4cc(O)cc5ccccc45)c(Cl)cc23)CC1 [Example I-69, 1-(4-(6-chloro-8-fluoro-7-(3-hydroxy-naphthalen-1-yl)-2-(tetrahydro-2H-pyran-4-ylamino)quinazolin-4-yl)piperazin-1-yl)prop-2-en-1-one] | +++ (+++ indicates binding activity greater than 90%) | 
18 | C=CC(=O)N1CCN(c2nc(NC3CCCN(C(C)C)C3)nc3c(F)c(-c4c(O)cccc4F)c(Cl)cc23)CC1 (stereo not drawn) [Example I-121, 1-(4-(6-chloro-8-fluoro-7-(2-fluoro-6-hydroxyphenyl)-2-(1-isopropyl-piperidin-3-ylamino)quinazolin-4-yl)piperazin-1-yl) prop-2-en-1-one] | +++ (+++ indicates binding activity greater than 90%) | 
